ChEMBL document CHEMBL4196089, “Design, synthesis, biological evaluation and in vivo testing of dual phosphodiesterase 5 (PDE5) and histone deacetylase 6 (HDAC6)-selective inhibitors for the treatment of Alzheimer's disease” (Eur J Med Chem, 2018)

Legend:
[1] = biological target: Histone deacetylase 2 (Homo sapiens, UniProt Q92769); test: Inhibition of full length human recombinant C-terminal His-tagged HDAC2 expressed in baculovirus infected sf9 cells using fluorogenic HDAC substrate 3 after 30 mins by fluorescence assay
[2] = biological target: Histone deacetylase 3/Nuclear receptor corepressor 2 (HDAC3/NCoR2) (Homo sapiens, UniProt O15379); test: Inhibition of full length human recombinant C-terminal His-tagged HDAC3/N-terminal GST-tagged NCOR2 (95 to 489 residues) expressed in baculovirus infected sf9 cells using fluorogenic HDAC substrate 3 after 30 mins by fluorescence assay
[3] = Selectivity ratio of compound effect for inhibition of HDAC6 in human SH-SY5Y cells assessed as induction of tubulin K-40 acetylation level to compound effect for inhibition of class-1 HDAC in human SH-SY5Y cells assessed as induction of AcH3K9 level; format: functional
[4] = biological target: Protein deacetylase HDAC6 (Mus musculus) (UniProt Q9Z2V5); test: Inhibition of HDAC6 in Tg2576 mouse primary neurons assessed as reduction in phosphorylated tau protein level at 100 nM treated for 2 days measured at 24 hrs post last dose by Western blot analysis relative to control
[5] = Cytotoxicity against Tg2576 mouse primary neurons after 72 hrs by ATP luminescence assay; format: cell-based, Neuron; conditions: read-out: LC50
[6] = biological target: CYP3A4 (Homo sapiens, UniProt P08684); test: Inhibition of CYP3A4 in human liver microsomes at 10 uM after 10 mins in presence of NADPH by LC-MS/MS analysis relative to control; format: ADME
[7] = biological target: High affinity cGMP-specific 3',5'-cyclic phosphodiesterase 9A (Homo sapiens, UniProt O76083); test: Inhibition of full length human recombinant N-terminal GST-tagged PDE9A2 expressed in baculovirus infected sf9 cells using cGMP as substrate after 30 mins by fluorescence assay
[8] = biological target: Histone deacetylase 5 (Homo sapiens, UniProt Q9UQL6); test: Inhibition of human HDAC5
[9] = biological target: Histone deacetylase 4 (Homo sapiens, UniProt P56524); test: Inhibition of human HDAC4
[10] = biological target: Histone deacetylase 9 (Homo sapiens, UniProt Q9UKV0); test: Inhibition of human HDAC9
Histone deacetylase 9, sequence (Q9UKV0 whole entry): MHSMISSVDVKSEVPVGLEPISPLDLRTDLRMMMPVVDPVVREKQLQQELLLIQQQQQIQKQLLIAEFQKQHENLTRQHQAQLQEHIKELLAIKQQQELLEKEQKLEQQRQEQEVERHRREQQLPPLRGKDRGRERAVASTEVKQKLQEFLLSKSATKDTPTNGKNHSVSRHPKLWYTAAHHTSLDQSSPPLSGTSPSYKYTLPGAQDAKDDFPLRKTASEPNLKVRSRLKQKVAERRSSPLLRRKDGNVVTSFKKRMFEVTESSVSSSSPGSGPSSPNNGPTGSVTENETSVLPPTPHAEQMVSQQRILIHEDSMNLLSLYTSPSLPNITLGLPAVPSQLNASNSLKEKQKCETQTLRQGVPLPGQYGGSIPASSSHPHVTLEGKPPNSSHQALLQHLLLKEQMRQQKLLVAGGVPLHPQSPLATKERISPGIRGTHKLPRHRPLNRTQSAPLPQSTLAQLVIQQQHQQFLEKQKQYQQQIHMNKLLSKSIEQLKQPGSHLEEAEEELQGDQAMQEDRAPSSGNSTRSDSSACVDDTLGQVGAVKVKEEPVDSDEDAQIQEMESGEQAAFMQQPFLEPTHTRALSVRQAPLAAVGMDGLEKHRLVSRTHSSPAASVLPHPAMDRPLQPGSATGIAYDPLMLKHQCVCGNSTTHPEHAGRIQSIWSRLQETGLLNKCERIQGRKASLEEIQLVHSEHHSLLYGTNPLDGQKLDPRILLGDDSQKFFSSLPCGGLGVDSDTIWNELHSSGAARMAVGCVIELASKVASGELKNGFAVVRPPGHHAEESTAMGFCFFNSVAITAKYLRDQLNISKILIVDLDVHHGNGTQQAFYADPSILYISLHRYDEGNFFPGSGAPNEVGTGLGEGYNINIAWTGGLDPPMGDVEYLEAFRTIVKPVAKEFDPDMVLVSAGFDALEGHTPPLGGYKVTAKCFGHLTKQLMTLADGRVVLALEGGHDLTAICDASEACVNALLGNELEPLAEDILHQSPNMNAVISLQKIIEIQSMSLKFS

Protein deacetylase HDAC6 (Mus musculus), sequence (Q9Z2V5 whole entry): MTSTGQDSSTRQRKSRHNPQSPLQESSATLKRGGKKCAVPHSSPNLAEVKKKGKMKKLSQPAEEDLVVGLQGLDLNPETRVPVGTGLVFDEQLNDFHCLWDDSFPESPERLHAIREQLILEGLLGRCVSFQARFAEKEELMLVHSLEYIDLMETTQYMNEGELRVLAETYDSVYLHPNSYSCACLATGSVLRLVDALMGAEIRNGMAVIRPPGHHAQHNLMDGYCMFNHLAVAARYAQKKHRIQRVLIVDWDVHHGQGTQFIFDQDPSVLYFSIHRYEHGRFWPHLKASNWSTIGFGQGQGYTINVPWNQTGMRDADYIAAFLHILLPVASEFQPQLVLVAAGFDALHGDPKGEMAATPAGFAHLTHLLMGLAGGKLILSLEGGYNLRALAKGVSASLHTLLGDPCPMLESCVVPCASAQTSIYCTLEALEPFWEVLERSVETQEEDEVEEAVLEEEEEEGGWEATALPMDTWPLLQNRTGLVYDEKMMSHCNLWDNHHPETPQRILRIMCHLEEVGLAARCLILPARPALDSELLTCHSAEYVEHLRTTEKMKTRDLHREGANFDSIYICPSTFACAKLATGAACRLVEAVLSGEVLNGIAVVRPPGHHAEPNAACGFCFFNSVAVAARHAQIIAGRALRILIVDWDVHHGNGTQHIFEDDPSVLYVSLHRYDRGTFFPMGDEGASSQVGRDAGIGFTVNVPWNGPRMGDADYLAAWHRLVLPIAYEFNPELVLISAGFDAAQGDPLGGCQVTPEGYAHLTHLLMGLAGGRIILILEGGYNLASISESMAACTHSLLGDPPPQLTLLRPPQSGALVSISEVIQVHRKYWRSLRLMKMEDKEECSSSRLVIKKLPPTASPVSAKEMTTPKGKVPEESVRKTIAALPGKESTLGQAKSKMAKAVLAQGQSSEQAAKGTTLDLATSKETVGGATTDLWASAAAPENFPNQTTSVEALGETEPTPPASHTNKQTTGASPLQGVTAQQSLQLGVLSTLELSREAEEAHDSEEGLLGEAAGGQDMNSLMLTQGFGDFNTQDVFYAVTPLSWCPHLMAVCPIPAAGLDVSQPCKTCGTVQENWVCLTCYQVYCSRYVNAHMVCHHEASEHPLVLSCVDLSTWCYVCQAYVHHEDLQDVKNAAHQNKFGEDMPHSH
Histone deacetylase 4, sequence (P56524 whole entry): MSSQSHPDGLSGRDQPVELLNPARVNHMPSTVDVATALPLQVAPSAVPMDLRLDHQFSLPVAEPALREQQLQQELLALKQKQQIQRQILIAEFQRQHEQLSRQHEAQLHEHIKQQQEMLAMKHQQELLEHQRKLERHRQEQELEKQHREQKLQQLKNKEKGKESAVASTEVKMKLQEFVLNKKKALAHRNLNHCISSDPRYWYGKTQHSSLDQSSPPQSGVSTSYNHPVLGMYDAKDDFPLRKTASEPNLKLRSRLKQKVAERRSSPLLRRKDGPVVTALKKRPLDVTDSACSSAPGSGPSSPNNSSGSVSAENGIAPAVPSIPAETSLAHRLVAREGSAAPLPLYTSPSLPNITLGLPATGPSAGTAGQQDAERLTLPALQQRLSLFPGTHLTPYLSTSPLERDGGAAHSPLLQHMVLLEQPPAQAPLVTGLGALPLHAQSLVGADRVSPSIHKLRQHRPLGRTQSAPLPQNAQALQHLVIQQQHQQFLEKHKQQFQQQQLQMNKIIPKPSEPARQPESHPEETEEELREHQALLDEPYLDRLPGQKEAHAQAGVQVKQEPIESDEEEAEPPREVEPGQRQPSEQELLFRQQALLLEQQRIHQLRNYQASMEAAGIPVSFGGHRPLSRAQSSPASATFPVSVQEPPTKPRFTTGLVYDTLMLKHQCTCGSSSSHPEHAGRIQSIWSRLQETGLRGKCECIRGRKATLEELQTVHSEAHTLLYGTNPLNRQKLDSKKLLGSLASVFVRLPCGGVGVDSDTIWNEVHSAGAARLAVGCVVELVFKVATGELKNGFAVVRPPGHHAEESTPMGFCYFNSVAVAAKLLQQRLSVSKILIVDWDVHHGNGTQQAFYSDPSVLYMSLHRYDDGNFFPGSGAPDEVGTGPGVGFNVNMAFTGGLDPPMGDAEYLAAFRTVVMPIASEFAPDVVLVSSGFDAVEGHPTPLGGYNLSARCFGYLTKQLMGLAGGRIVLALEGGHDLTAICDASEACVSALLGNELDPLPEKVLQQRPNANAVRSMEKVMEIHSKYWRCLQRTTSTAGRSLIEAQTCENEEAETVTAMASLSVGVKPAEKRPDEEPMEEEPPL
Histone deacetylase 2, sequence (Q92769 whole entry, the tested form may be a part): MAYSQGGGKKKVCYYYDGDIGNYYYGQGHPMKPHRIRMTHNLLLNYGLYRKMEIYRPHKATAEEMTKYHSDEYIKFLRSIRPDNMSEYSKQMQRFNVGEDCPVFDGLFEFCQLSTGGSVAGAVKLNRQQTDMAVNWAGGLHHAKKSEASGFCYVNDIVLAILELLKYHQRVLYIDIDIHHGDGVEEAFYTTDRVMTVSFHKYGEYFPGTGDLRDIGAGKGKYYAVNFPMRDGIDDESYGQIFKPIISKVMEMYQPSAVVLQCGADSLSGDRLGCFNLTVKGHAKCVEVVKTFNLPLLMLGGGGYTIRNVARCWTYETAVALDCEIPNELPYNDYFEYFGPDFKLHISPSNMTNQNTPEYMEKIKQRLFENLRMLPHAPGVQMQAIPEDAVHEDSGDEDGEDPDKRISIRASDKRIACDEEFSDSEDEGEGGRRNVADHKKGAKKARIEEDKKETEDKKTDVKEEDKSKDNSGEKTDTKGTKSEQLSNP
Histone deacetylase 5, sequence (Q9UQL6 whole entry): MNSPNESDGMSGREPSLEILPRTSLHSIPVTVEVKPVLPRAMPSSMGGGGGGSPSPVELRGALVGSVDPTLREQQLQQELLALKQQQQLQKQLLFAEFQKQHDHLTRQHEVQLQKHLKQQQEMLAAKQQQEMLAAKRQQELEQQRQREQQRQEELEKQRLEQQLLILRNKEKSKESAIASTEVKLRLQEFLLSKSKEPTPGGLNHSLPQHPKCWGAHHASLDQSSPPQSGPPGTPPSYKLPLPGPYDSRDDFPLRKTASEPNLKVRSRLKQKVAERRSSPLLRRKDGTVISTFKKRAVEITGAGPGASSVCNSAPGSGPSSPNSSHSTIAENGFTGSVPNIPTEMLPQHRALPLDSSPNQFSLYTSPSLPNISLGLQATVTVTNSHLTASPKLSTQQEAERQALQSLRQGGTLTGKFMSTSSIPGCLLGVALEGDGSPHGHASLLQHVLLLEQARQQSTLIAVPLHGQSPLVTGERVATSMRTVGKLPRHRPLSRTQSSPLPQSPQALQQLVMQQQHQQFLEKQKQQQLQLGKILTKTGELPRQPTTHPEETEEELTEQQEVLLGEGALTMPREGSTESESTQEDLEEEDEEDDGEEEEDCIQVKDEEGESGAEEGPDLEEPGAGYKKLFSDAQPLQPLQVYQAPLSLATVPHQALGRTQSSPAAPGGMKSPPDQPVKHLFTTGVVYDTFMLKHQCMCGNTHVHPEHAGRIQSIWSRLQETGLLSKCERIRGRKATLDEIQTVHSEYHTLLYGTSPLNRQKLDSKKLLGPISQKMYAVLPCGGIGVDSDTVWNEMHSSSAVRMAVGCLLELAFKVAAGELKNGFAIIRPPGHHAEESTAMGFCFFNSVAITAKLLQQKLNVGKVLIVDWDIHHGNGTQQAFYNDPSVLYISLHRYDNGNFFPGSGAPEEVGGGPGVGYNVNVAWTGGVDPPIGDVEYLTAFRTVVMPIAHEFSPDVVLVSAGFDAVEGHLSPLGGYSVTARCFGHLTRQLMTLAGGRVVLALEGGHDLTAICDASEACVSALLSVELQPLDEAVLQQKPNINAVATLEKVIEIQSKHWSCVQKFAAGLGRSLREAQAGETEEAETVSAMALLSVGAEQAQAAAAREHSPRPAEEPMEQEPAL

CCCc1nn(C)c2c(=O)[nH]c(-c3cc(Cc4ccc(C(=O)NO)s4)ccc3OCC)nc12
IC50 [1]: 3.72 µM
IC50 [2]: 2090 nM
Selectivity ratio [3]: >5
inhibition [4]: 30%
CC50 at 72 h [5]: 46.3 µM
inhibition at 10 min, 10 µM [6]: 23.4%
IC50 [7]: > 10 µM
IC50 [8]: > 10 µM
IC50 [9]: > 10 µM
IC50 [10]: > 10 µM
